Results taken from patent US11896568B2, “Compositions and methods for treating patients suffering from glioma or leukemia” (University of Cincinnati, priority 2016, dated 2024).

Key:
[1] = test system: Primary AML cells with IDH mutations; assay: JQ1 sensitivity of primary AML cells; format: cell-based, human; settings: "often"
[2] = test system: R-2HG-resistant leukemic cells; assay: JQ1 with R-2HG in resistant leukemic cells, cell viability; format: cell-based, human; settings: inhibition of MYC signaling by JQ1
Description: Cell proliferation/viability, cell cycle and cell apoptosis assays. To study the effects of R-2HG, FTO, or IDH1^R132H on viability, the cells were seeded into 96-well plates at the concentration of 5,000-10,000 cells/well in triplicates and MTT (G4000, Promega) was used to assess cell proliferation and viability following the manufacturer's instructions. For cell cycle analysis, Propidium iodide (PI) DNA staining was used to assess the cells at G0/G1, S and G2/M phases, while Hoechst 33342 and Pyronin Y were used to determine the cells at G0, G1 and S/G2/M stages. For the PI staining, cells were resuspended in Krishan's reagent (0.05 mg/ml PI, 0.1% trisodium citrate, 0.02 mg/ml ribonuclease A, 0.3% NP-40), incubated at 37° C. for 30 minutes and then applied to the flow cytometer.; For Hoechst/Pyronin Y staining, the cells were suspended in cell culture medium, incubated at 37° C. for 45 minutes with existence of 10 ug/mL Hoechst 33342 and further incubated at 37° C. for 15 minutes with existence of Pyronin Y before flow cytometry. Cell apoptosis assay was conducted with FITC Annexin V Apoptosis Detection Kit I (BD Pharmingen) according to the manufacturer's instructions.

## Cc1sc2c(c1C)C(c1ccc(Cl)cc1)=N[C@@H](CC(=O)OC(C)(C)C)c1nnc(C)n1-2 [JQ1]
[1]
  IC50: < 1 µM
[2]
  sensitivity of R-2HG-resistant leukemic cells to exogenous R-2HG or IDH1^R132H: notably increased sensitivity
